The record followed here is patent US12534452B2, “N-(1H-imidazol-2-yl)benzamide compound and pharmaceutical composition comprising the same as active ingredient” (KAINOS MEDICINE, INC., priority 2019, dated 2026).

SMILES strings stand for the structures.

Chain of IRAK4 (Q9NWZ3 whole entry): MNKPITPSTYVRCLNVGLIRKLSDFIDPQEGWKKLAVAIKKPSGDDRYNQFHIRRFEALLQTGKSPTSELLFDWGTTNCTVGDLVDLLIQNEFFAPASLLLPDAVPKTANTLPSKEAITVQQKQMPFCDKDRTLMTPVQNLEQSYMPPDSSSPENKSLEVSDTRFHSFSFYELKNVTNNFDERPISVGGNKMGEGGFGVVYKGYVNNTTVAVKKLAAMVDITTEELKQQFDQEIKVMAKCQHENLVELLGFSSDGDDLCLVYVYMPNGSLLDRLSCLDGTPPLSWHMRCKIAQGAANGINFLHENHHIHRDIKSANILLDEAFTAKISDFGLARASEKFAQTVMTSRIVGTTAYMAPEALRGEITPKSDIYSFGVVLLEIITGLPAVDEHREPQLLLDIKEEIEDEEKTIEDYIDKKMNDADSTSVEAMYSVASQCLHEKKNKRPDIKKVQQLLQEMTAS

This assay deals with IRAK4 (Homo sapiens (Human), UniProt Q9NWZ3). Kind of assay: In vitro IRAK4 phosphorylation activity assay. Type of assay: biochemical. Conditions: [γ-33P]-ATP, myelin basic protein substrate, 40 minutes at room temperature; categories. The essentials:
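Radiometric filter-binding assay, no compound–kinase preincubation; 8 mM MOPS pH 7.0, 0.2 mM EDTA, 10 mM Mg acetate, 0.33 mg/mL myelin basic protein substrate, [γ-33P]-ATP. Reaction 40 min at room temperature, stopped with phosphoric acid, scintillation counting; IC50 reported in categories.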
In turn, `O=C(CCc1cn(CC2CCCCC2)c(NC(=O)c2cccc(-c3cn[nH]c3)c2)n1)Nc1ccccc1` [Example 295, N-(1-(cyclohexylmethyl)-4-(3-oxo-3-(phenylamino)propyl)-1H-imidazol-2-yl)-3-(1H-pyrazol-4-yl)benzamide] registered an IC50 of over 100 nM. The figure for `CNC(=O)CCCc1cn(C2CCCCC2)c(NC(=O)c2cccc(-c3cn[nH]c3)c2)n1` [Example 296, N-(1-cyclohexyl-4-(4-(methylamino)-4-oxobutyl)-1H-imidazol-2-yl)-3-(1H-pyrazol-4-yl)benzamide] is under 50 nM; for `CNC(=O)CCCc1cn(-c2ccc(F)cc2)c(NC(=O)c2cccc(-c3cn[nH]c3)c2)n1` [Example 297, N-(1-(4-fluorophenyl)-4-(4-(methylamino)-4-oxobutyl)-1H-imidazol-2-yl)-3-(1H-pyrazol-4-yl)benzamide] it is under 50 nM. The figure for `CNC(=O)CCCc1cn(-c2ccc(F)cc2F)c(NC(=O)c2cccc(-c3cn[nH]c3)c2)n1` [Example 298, N-(1-(2,4-difluorophenyl)-4-(4-(methylamino)-4-oxobutyl)-1H-imidazol-2-yl)-3-(1H-pyrazol-4-yl)benzamide] is 50 to 100 nM; for `CN1CCN(C(=O)CCCc2cn(-c3ccc(F)cc3)c(NC(=O)c3cccc(-c4cnn(C)c4)c3)n2)CC1` [Example 299, N-(1-(4-fluorophenyl)-4-(4-(4-methylpiperazin-1-yl)-4-oxobutyl)-1H-imidazol-2-yl)-3-(1-methyl-1H-pyrazol-4-yl)benzamide] it is under 50 nM. In the case of `Cn1cc(-c2cccc(C(=O)Nc3nc(CCCC(=O)NC4CC4)cn3-c3ccc(F)cc3)c2)cn1` [Example 300, N-(4-(4-(cyclopropylamino)-4-oxobutyl)-1-(4-fluorophenyl)-1H-imidazol-2-yl)-3-(1-methyl-1H-pyrazol-4-yl)benzamide], the IC50 was under 50 nM. The figure for `O=C(Nc1nc(CCCCCCN2CCCCC2)cn1-c1ccc(F)cc1)c1cccc(-c2cn[nH]c2)c1` [Example 301, N-(1-(4-fluorophenyl)-4-(6-(piperidin-1-yl)hexyl)-1H-imidazol-2-yl)-3-(1H-pyrazol-4-yl)benzamide] is under 50 nM. Regarding `O=C(Nc1nc(CCCCCCN2CCCCC2)cn1-c1ccc(F)cc1F)c1cccc(-c2cn[nH]c2)c1` [Example 302, N-(1-(2,4-difluorophenyl)-4-(6-(piperidin-1-yl)hexyl)-1H-imidazol-2-yl)-3-(1H-pyrazol-4-yl)benzamide], the IC50 is over 100 nM. To `O=C(CCc1cn(-c2ccncc2)c(NC(=O)c2cccc(-c3cn[nH]c3)c2)n1)Nc1ccccc1` [Example 303, N-(4-(3-oxo-3-(phenylamino)propyl)-1-(pyridin-4-yl)-1H-imidazol-2-yl)-3-(1H-pyrazol-4-yl)benzamide] belongs over 100 nM.

As a reminder, the IC50 is the concentration that inhibits the measured activity by half. High values mean lower potency, low ones higher potency.
